Measured values reported in patent US20180296532A1, “RNA-Focused Small Molecules for Inhibiting RNA Toxicity in Myotonic Dystrophy” (The Scripps Research Institute, priority 2015, published 2018).

Legend:
[1] = tested on: HSA^LR mice; test: Pre-mRNA splicing defects in HSA^LR mouse model of DM1; type: in vivo; conditions: 40 mg/kg/day intraperitoneally for 18 days
Description: (§1) A mouse model of DM1 has been reported in which 250 rCUG repeats are expressed using an actin promoter (human skeletal actin long repeat, HSA^LR).^24 The presence of these repeats results in dysregulation of alternative splicing in the muscle-specific chloride ion channel (Clcn1) and the sarcoplasmic/endoplasmic reticulum calcium ATPase 1 (Serca1/Atp2a1) pre-mRNAs. Clcn1 exon 7a is excluded ˜100% in mRNA from normal adult mice: DM1 mice have an exclusion rate of ˜50% (FIG. 12A).
All experimental procedures, mouse handling, and husbandry were completed in accordance with the Association for Assessment and Accreditation of Laboratory Animal Care. A mouse model for DM1(67). HSALR in line 20b, was used. HSALR mice express human skeletal actin RNA with 250 CUG repeats in the 3′ UTR. Age- and gender-matched HSALR mice were injected intraperitoneally with either 40 mg/kg 2GN8 in water for treatment and 0.9% NaCl for control once per day for 18 days. Mice were sacrificed one day after the last injection, and the vastus muscle was obtained. RNA was extracted from the vastus tissue, and cDNA was synthesized as previously described.

[2] = tested on: r(CUG)^exp-containing nuclear foci; test: Nuclear foci by fluorescence in situ hybridization (FISH) in DM1 patient derived fibroblasts; type: cell-based; conditions: 300 and 200 μM, 48 h; untreated cells ˜5
Description: Bioactivity of 2GN8 was further assessed in DM1 patient derived fibroblasts for the disruption of nuclear foci. As observed in other microsatellite disorders, the binding of various proteins to r(CUG)^exp causes formation of nuclear foci.^(55) Fluorescence in situ hybridization (FISH) with a dye-labeled oligonucleotide was used to determine if 2GN8 disrupts r(CUG)^exp-containing nuclear foci. In untreated cells, the average number of foci per cell is ˜5. Treatment with 2GN8 reduces the average number of foci per cell to less than 1 at 300 and 200 μM (FIG. 11).
FISH was utilized to determine the effects of 2GN8 on the formation and disruption of nuclear foci. DM1 patient derived fibroblasts containing 500 CTG repeats (GM03987) were grown to ˜80% confluence in a Mat-Tek 96-well glass bottom plate in growth medium. Cells were treated with 2GN8 (300, 200 and 100 μM) for 48 h in growth medium followed by FISH as previously described(63) using 1 ng/μL DY547-2′OMe-(CAG)6. Immunostaining of MBNL1 was completed as previously described(65) using the MB1a antibody (diluted 1:4), which was generously supplied by Prof. […]

[3] = tested on: r(CUG)12-MBNL1 complex; test: TR-FRET assay, disruption of the r(CUG)12-MBNL1 complex; type: biochemical
Description: DM1 is caused by an RNA gain-of-function mechanism in which r(CUG)^exp binds and inactivates proteins involved RNA biogenesis.^(25-29) One protein, muscleblind-like 1 (MBNL1), regulates the alternative splicing of a sub-set of RNAs that are de-regulated in DM1.^(27, 43-45) We discovered that Formula (I) compounds disrupt the r(CUG)12-MBNL1 complex in vitro as determined by a previously described time-resolved fluorescence resonance energy transfer (TR-FRET) assay (FIG. 1A).^(46)
The in vitro activity of library compounds was assessed by disruption of the r(CUG)12-MBNL1 complex using a previously reported TR-FRET assay.^(32, 46) Biotinylated RNA was folded at 60° C. in 1× Folding Buffer (20 mM HEPES, pH 7.5, […], and 10 mM NaCl) and slowly cooled to room temperature. The buffer was then adjusted to 1× Assay Buffer (1× Folding Buffer supplemented with 2 mM MgCl2, 2 mM CaCl2, 5 mM DTT, 0.1% BSA, 0.05% Tween-20) and MBNL1-His6 was added. The final concentrations of RNA and MBNL1-His6 were 80 nM and 62 nM, respectively. After incubation at room temperature for 15 min, 8 μL aliquots were then dispensed into each well of low volume, 384-well plates using a flying reagent dispenser. […] Plates were incubated at room temperature for 1 h, and then TR-FRET was measured using a Molecular Devices SpectraMax M5 plate reader using an excitation wavelength of 345 nm and a 420 nm cutoff. Fluorescence was measured at 545 and 665 nm. Library compounds were screened for potential intrinsic fluorescence under screening conditions. No library compounds were fluorescent at 665 nm and two non-hit compounds have low fluorescence at 545 nm.
To calculate the percent inhibition of complex formation, the ratio of fluorescence intensity at 545 nm and 665 nm in the presence of compound was compared to the ratio in the absence of small molecule (100% r(CUG)12-MBNL1 complex formation) and in the absence of RNA and protein (no complex formation). […]

[4] = tested on: HSA^LR mice; test: Myotonia grade in HSA^LR mouse model of DM1; type: in vivo; conditions: 40 mg/kg/day; compared to untreated mice
Description: as §1

## N=C(N)Nc1ccc2nc(-c3ccc(-c4nc5ccc(NC(=N)N)cc5[nH]4)cc3)[nH]c2c1 [Compound 2GN8]
[1]
  Clcn1 pre-mRNA splicing defects: improved to nearly wild type levels
  Serca1 pre-mRNA splicing defects: improved to nearly wild type levels
[2]
  average number of foci per cell: less than 1
[3]
  IC50: 39 ± 4 µM
[3]; ratio of TR-FRET IC50 values
  enhancement in potency of 2GN8 over precursor compound 27: roughly 14 fold
[4]
  myotonia grade in quadriceps and gastrocnemius muscles: improved myotonia grade
